Legend:
[1] = tested on: mTOR pathway; assay: Inhibition of mTOR and S6R phosphorylation in primary colonic epithelial cells, flow cytometry; assay type: cell-based, human; conditions: Homo sapiens, Epithelial cell; serum stimulated primary colonic epithelial cells, 48 hr; read-out: IC50, % cells positive for anti-pmTOR and anti-pS6R relative to DMSO
Procedure: To evaluate Rifamycin activity on the mTOR pathway, primary colonic epithelial cells were serum starved for 24 hr and restimulated with serum for 48 hr to induce phosphorylation of mTOR and its downstream target protein […]. Serum stimulated cells were treated with Rifamycin SV, Rifaximin, the positive control Rapamycin, or the negative vehicle control DMSO. Cells were fixed, stained with antibodies against pmTOR and pS6R then analyzed by flow cytometry.

[2] = tested on: DSS induced colitis; assay: Acute colitis induced by Dextran Sulfate Sodium (DSS); assay type: in vivo; conditions: mice, DSS 2%, PO 100 mg/Kg
Procedure: In situ gel enema formulation batch 7663 (same formulation as batch 7639) in vivo efficacy was tested in a murine model of acute colitis induced by Dextran Sulfate Sodium (DSS). This animal model is perhaps the most widely used mouse model of colitis and employs DSS, a chemical colitogen with anticoagulant properties, to induce disease which closely resembles human UC. DSS induced intestinal inflammation results in damage to the epithelial monolayer lining the large intestine allowing the dissemination of proinflammatory intestinal contents (e.g. bacteria and their products) into underlying tissue.
For this study, a group of mice was treated by enema with Batch 7663 (indicated as CB0125 in the figures) (dose 45 mg/kg), one group was treated by enema with Placebo Batch 7679 as a comparator for 7663; a group was treated by enema with Rifamycin powder dissolved in water (67 mg/kg). One group of mice was treated orally PO with 5-ASA at the dose of 100 mg/Kg; this group was introduced as positive control. 5-ASA is the golden standard therapy for inflammatory bowel diseases, including UC, distal UC and proctitis. One group was treated by enema with the vehicle (H2O) only, as negative control.
Briefly DSS (2%) was dissolved in water (w/v) and given to mice in place of normal drinking water. DSS water was provided ad libitum for 5 days and was changed daily. This period was followed by a washout period of 5 days with water only. Mice were weighed daily and monitored for clinical status including hunching, mobility, soft stool and/or diarrhoea. At end of the study mice were sacrificed by CO2 inhalation. Immediately after euthanasia, the animals were laparatomyzed and intestine was exteriorized. The entire colon was isolated from the caecum to the anus, placed unstretched on a ruler and then measured and weighed after rinsing the lumen with saline. The weight was normalized to the colon length by calculating the ratio.
For histological analysis of colon samples, about 2 cm of the middle portion of isolated colon was fixed in a 10% formalin. Each fixed fragment was embedded in paraffin. The slides were stained with haematoxylin and eosin and assessed according to the histological score.

| IC50 [1] [µM] | Structure (SMILES) | histological score ([2]; compared to 7663) | clinical score AUC ([2]; compared to batch 7663) |
| --- | --- | --- | --- |
| 43 | CO[C@H]1/C=C/O[C@@]2(C)Oc3c(C)c(O)c4c(O)c(c5c(nc6cc(C)ccn65)c4c3C2=O)NC(=O)/C(C)=C\C=C\[C@H](C)[C@H](O)[C@@H](C)[C@@H](O)[C@@H](C)[C@H](OC(C)=O)[C@@H]1C [Rifaximin] | – | – |
| 0.53 | CO[C@H]1C[C@@H]2CC[C@@H](C)[C@@](O)(O2)C(=O)C(=O)N2CCCC[C@H]2C(=O)O[C@H]([C@H](C)C[C@@H]2CC[C@@H](O)[C@H](OC)C2)CC(=O)[C@H](C)/C=C(\C)[C@@H](O)[C@@H](OC)C(=O)[C@H](C)C[C@H](C)/C=C/C=C/C=C/1C [Rapamycin] | – | – |
| – | Nc1ccc(O)c(C(=O)O)c1 [Batch 5-ASA, 5-aminosalycilic acid] | lower improvement | lower efficacy |

Reference: patent US20240408008A1, “AN IN-SITU GELLING ENEMA OF RIFAMYCIN FOR TREATING POUCHITIS AND DISTAL ULCERATIVE COLITIS” (COSMO TECHNOLOGIES LTD., priority 2021, published 2024)
